The target of experiment [1] is T1, S359A mutant AhR (Mus musculus, UniProt P30561, S359A).
T1 construct: made in house; host or cells: in vitro, Promega TNT Quick rabbit reticulocyte lysate
T1 sequence (P30561 10-848 S359A): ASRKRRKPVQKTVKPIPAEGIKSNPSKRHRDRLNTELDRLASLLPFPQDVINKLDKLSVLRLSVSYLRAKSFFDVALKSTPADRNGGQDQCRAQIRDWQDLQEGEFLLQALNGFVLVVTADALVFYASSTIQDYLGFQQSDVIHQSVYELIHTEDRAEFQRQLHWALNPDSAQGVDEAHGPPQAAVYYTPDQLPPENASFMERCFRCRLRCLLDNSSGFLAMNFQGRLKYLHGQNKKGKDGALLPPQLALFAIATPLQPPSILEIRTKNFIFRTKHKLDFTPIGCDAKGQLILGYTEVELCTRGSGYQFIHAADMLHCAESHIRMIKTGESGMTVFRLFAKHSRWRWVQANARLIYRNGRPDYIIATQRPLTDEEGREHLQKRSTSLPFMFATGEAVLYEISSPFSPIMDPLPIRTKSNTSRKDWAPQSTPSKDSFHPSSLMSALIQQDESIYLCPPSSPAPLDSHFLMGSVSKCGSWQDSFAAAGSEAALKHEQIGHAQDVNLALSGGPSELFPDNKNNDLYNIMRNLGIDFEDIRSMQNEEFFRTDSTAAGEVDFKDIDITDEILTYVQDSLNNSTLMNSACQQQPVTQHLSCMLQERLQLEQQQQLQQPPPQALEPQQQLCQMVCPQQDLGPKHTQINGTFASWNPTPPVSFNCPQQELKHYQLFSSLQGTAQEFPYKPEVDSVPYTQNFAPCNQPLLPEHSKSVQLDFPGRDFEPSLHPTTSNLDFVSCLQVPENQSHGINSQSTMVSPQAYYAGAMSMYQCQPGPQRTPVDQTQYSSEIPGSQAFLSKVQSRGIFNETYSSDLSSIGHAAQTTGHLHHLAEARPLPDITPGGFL
Nature of the experiment: [3H]TCDD competitive ligand binding, S359A mutant AhR. The following applies: for IC50: Table S6, AhR mutant S359A. The procedure: (§1) The mouse AhR (mAhR) and ARNT (mARNT) expression plasmids, mβAhR/pcDNA3 and mβArnt/pcDNA3, have been previously described. Point mutations of mβAhR/pcDNA3 were carried out using the QuikChange Lightning Mutagenesis Kit (Agilent Technologies) and all constructs were verified by sequencing.
(§2) [^3H]TCDD specific binding to wild-type or mutant mAhRs synthesized in vitro using the Promega TNT Quick coupled transcription/translation rabbit reticulocyte lysate kit (Madison, WI) was carried out as previously described. [^3H]TCDD specific binding was determined by subtracting the amount of [^3H]TCDD bound to unprogrammed lysate (nonspecific binding) from the total amount of [^3H]TCDD binding to lysate containing in vitro expressed AhR. The amount of [^3H]TCDD specific binding remaining in the presence of the indicated competitor chemical was expressed as a percent of the total [^3H]TCDD specific binding. The relative binding affinity (IC50) of each chemical was determined from concentration-dependent competitive inhibition curves obtained using [^3H]TCDD and increasing concentrations of each test chemical and the mean IC50 value was determined using three-parameter non-linear regression.

For experiment [2], the system named is zebrafish AhR1a (zfAhR1a). The following applies: cited from earlier work.
Experiment [3] has as its target T2, H331A mutant AhR (Mus musculus, UniProt P30561, H331A).
T2 construct: made in house; host or cells: in vitro, Promega TNT Quick rabbit reticulocyte lysate
T2 sequence (P30561 10-848 H331A): T1 sequence (P30561 10-848 S359A) with H322A, A350S
The experiment can be described thus: [3H]TCDD competitive ligand binding, H331A mutant AhR. The procedure:
as §1, §2

Where a chain is given by its changes, count along the chain named.

For orientation: IC50 means the midpoint of a concentration-inhibition curve. Low values mean greater potency, high ones weaker potency.

In the case of `O=c1cc(-c2ccccc2)oc2ccc3ccccc3c12` [BNF], the IC50 in experiment [1] came out at 47.1 nM. As for `Clc1cc2c(cc1Cl)Oc1cc(Cl)c(Cl)cc1O2` [TCDD, 2,3,7,8-tetrachlorodibenzo-p-dioxin], in experiment [2], the “ligand binding to zfAhR1a” value was “unable to bind”. With `Cc1ccc2cc3c(ccc4ccccc43)c3c2c1CC3` [3MC, 3-methylcholanthrene], the “change of relative binding affinity versus wild-type AhR” value in experiment [3] (H331A mutation, in words) is “dramatically increased”. Also, the IC50 in experiment [3] (Table S6, AhR mutant H331A) was 0.141 nM.

For `O=Cc1c2[nH]c3ccccc3c2cc2[nH]c3ccccc3c12` [FICZ, 6-formylindolo[3,2-b]carbazole], the “change of relative binding affinity versus wild-type AhR” value in experiment [1] (S359A substitution, in words) is on record as “decreased binding”. The same molecule displayed an IC50 in experiment [1] of 4.1 nM.

Values taken from article PMC6650409, “Modeling the binding of diverse ligands within the Ah receptor ligand binding domain” (Scientific Reports, 2019).
